The target in one test is T1, hMAO-B (Homo sapiens, UniProt P27338).
T1 construct: purchased Sigma-Aldrich; host or cells: insect cells (BTI-TN-5B14), recombinant baculovirus
T1 sequence (P27338 1-520): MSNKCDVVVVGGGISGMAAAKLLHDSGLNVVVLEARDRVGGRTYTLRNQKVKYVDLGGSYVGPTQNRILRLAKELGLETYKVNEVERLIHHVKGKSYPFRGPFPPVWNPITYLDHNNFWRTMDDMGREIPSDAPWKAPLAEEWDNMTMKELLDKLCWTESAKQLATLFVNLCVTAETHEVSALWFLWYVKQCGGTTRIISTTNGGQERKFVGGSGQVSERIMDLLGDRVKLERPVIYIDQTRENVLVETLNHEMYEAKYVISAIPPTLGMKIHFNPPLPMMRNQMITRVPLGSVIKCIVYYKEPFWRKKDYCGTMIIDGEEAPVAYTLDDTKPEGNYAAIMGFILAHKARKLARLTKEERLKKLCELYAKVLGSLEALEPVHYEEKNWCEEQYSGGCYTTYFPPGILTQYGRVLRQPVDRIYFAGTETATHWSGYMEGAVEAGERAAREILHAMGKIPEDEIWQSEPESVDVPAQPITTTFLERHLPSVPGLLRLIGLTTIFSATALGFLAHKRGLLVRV
Put plainly: hMAO-B inhibitory activity, Amplex Red continuous fluorometric assay. The class given is biochemical. To be noted: for Selectivity index: IC50 (MAO-A)/IC50 (MAO-B); for IC50: recombinant hMAO-B, p-tyramine substrate, Amplex Red, mean SEM. Here is the method: (§1) The synthesized derivatives were screened for the hMAO-A and hMAO-B inhibitory activities by using an extremely sensitive continuous fluorometric assay containing Amplex Red (10-acetyl-3, 7-dihydroxyphenoxazine) reagent. The enzymatic H2O2 was measured with and without extracts or standards.
(§2) Unless otherwise noted, the analytical grade chemicals required for synthesis and antioxidant activity procured from Sigma Aldrich, Merck, Hi-media Laboratories. The analytical assessment of the synthesized derivatives for hMAO inhibition was measured by their effects on the generation of hydrogen peroxide (H2O2) by p-tyramine (a general substrate for both MAO isoforms), utilizing the Amplex Red MAO assay kit (Sigma USA) and microsomal MAO enzymes extracted by insect cells (BTI-TN-5B14) expressed on recombinant baculovirus containing cDNA probes for MAO isoforms (Sigma-Aldrich USA) were used as source for the two microsomal MAO isoforms. The progress of the reaction was cheeked through thin layer chromatography TLC executed on 0.25 mm pre-coated plates with silica gel procured from Merck, and the spots were envisaged in iodine chamber and UV cabinet, in mobile media TLC-hexane:toluene:ethyl acetate (1:1:1). Melting points were recorded on Sonar melting point apparatus in open capillary tubes. The nuclear magnetic resonance (NMR) spectra 1H NMR and ^13C NMR spectra were determined in DMSO and deuterated CDCl3 respectively on a spectrometer (Model: Bruker Avance II 400 NMR). Coupling constants J are in hertz (Hz) (Additional file 1). Spectral data for infrared (IR) was confirmed on Perkin Elmer FTIR spectrophotometer by using KBr pellets technique.
(§3) Human MAO-A and -B recombinant enzymes (Sigma-Aldrich) 5 mg ml^−1 were pre-aliquoted and placed at − 70 °C. The interactions of the titled compounds with hMAO isoforms were evaluated through a fluorimetric method based on the H2O2 formation rendered by MAO isoforms was identified by utilizing the non-fluorescent, extremely susceptible and stable probe Amplex®-Red reagent (10-acetyl-3,7-dihydroxyphenoxazine), which reacts with H2O2 in the existence of horseradish peroxidase to generate resorufin which is a fluorescent component. […] By the incubation time, the reaction was initiated via the addition of 200 μM Amplex Red reagent, 1 mM p-tyramine (general substrate for both MAO isoforms) and 1 U ml^−1 horseradish peroxidase (HRP). […] The calculation of specific fluorescence emission (used to obtain the final results) was carried out by subtraction of background action that was identified by the cuvettes comprising all reagents except the MAO isoforms, which were changed by a sodium phosphate buffer solution. The preparation of stock solutions and all reagents was done newly each day in deionized water and kept at − 20 °C. Data were processed in Microsoft Excel, to calculate IC50 values.
(§4) The enzymatic kinetic factors maximum reaction rate (Vmax) and Michaelis–Menten constant (Km) were computed by GraphPad Prism Software 6.02 (San Diego, CA, USA). The IC50 values were determined by nonlinear regression best fit model of normalized response with variable slope. Lineweaver–Burk plot was obtained from Michaelis–Menten data. The Michaelis–Menten constant (Km) is the concentration of […]. Relative selectivity (RS) folds were defined by the ratio of hMAO-A IC50 to hMAO-B IC50. The inhibition mechanism was identified by the double reciprocal plot (Lineweaver–Burk curves) by plotting the inverse of the substrate concentration (1/S) as a function against the inverse of initial velocity (1/V).

Test [1] deals with T2, hMAO-A (Homo sapiens, UniProt P21397).
T2 construct: purchased Sigma-Aldrich; host or cells: insect cells (BTI-TN-5B14), recombinant baculovirus
T2 sequence (P21397 1-527): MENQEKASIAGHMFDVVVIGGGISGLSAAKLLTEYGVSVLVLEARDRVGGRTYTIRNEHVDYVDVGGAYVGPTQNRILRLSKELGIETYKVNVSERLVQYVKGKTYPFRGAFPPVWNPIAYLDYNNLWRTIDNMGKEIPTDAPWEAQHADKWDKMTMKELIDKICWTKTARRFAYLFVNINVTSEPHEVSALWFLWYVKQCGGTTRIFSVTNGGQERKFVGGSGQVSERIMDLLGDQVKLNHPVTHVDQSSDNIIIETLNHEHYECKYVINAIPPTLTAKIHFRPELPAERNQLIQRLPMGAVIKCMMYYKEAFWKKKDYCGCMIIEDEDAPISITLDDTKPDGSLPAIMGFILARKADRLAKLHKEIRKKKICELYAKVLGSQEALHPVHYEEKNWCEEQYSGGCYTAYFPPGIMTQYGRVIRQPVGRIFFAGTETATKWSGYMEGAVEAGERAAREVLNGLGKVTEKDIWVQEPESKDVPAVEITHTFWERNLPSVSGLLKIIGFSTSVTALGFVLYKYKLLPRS
The test is described as follows: hMAO-A inhibitory activity, Amplex Red continuous fluorometric assay. The class given is biochemical. To be noted: recombinant hMAO-A, p-tyramine substrate, mean SEM. Here is the method: as §1, §2, §3, §4

A short description of test [2]: Hydrogen peroxide scavenging (H2O2) assay. Conditions: absorption at 230 nm, 10 min incubation, phosphate buffer pH 7.4; mean ± SEM, n = 3. Here is the method: H2O2 is quickly decomposed into oxygen and water and this could generate hydroxyl radicals (OH) that may commence DNA damage in the body and lipid peroxidation. The hydrogen peroxide inhibitory activity of newly synthesized compounds was assessed by the technique illustrated by Nakano and coworkers with some modifications. In phosphate buffer (40 mM pH 7.4) the solution of hydrogen peroxide (40 mM) was prepared and different concentrations of titled compounds (05–80 μg ml^−1) were added to H2O2 solution (2 ml). The concentration of hydrogen peroxide is determined by absorption at 230 nm using a spectrophotometer after 10 min of incubation. Blank reading was noted of phosphate buffer without H2O2. The percentage of hydrogen peroxide inhibition was anticipated by the formula [(Ab − At)/[…]] × 100, where Ab is the absorbance of the control and At is the absorbance of compounds/standard taken as L-ascorbic acid (05–80 μg ml^−1). UV/Vis Epoch ELISA reader was used to measure as a decrease in absorbance in the 96 wells (Table 5).

Test [3] in a line: DPPH radicals scavenging activity. Conditions: absorbance at 517 nm, 30 min at 37 °C; mean ± SEM, n = 3. From the text:
Besides their inhibitory action on hMAO the antioxidant potential of synthesized compounds was investigated using 1,1-Diphenyl-2-picrylhydrazyl (DPPH) assay. DPPH was utilized as a stable free radical because free radicals simulate reactive nitrogen and oxygen species distressing neurological structure.
The DPPH method is one of the most proficient techniques to assess the radical-scavenging action by a chain-breaking mechanism. […] DPPH is stable free radical on room temperature, however on acceptance of a hydrogen/electron radical it turns into a stable diamagnetic molecule. The scavenging activity of DPPH radical is assessed by the reduction in its optical density at 5l7 nm, rendered by antioxidants. This phenomenal feature of DPPH is due to the reaction among antioxidant compounds and radicals, leads to the scavenging of the free radical via donated hydrogen. It manifested visually as the color bleaches from purple to yellow. Therefore, DPPH is generally utilized as a substrate to estimate the ant oxidative potential. Different concentrations of around […] (25, 50, 75, and 100) µg ml^−1 of the titled derivatives were suspended in methanol and mixed with 5 ml of a 0.004% methanol solution of DPPH. Subsequently the all dilutions were subjected to incubation for 30 min at 37 °C temperature; finally, at 517 nm the absorbance was measured against a blank. Ascorbic acid was utilized as a reference while and all the experiments were performed in triplicate. […] DPPH free radical scavenging of compounds was calculated as scavenging activity for DPPH (%) = [(Ac − At)/Ac] × 100 Where Ac is the absorbance of the control reaction At is the absorbance of the test compound. The absorbance was measured with UV/Vis Epoch ELISA reader at 517 nm, and antioxidant activity was measured as a decrease in absorbance of DPPH·.
Background: The DPPH test is a chemical assay of radical scavenging.

The target of test [4] is T2, hMAO-A. Put plainly: Kinetic study (Lineweaver-Burk) of hMAO-A inhibition. The class given is biochemical. Conditions: Lineweaver-Burk plots, p-tyramine substrate.
Source text: The kinetic study by the Lineweaver–Burk plots, carried out to explicates the type of inhibition by compounds 7, 15 shown their significant inhibitory potential towards hMAO-A and hMAO-B, respectively. Reaction mixtures composing of five diverse concentrations of p-tyramine was used as a common substrate in the presence or absence of compounds.
as §4

In general, IC50 refers to the concentration needed to halve the response being measured. The compound `O=C(/C=C/C=C/c1ccc2c(c1)OCO2)Nc1ccc(Br)cc1` [Compound 5] returned a Selectivity index at hMAO-B of 4.241. Further, the IC50 is 14.19 ± 0.007 µM at hMAO-B, 60.19 ± 0.087 µM at hMAO-A [1], 8.279 ± 0.017 µM in test [2] and 5.553 ± 0.007 µM in test [3].

Take `O=C(/C=C/C=C/c1ccc2c(c1)OCO2)Nc1cccc2ccccc12` [Compound 7]: the “type of hMAO-A inhibition” value at hMAO-A [4] was “competitive”. On hMAO-B, the Selectivity index is on record as 0.294. For the same compound, the IC50 was 52.2 ± 0.006 µM on hMAO-B, 15.38 ± 0.071 µM at hMAO-A [1], 9.495 ± 0.045 µM in test [2] and 8.815 ± 0.019 µM in test [3].

Turning to `O=C(/C=C/C=C/c1ccc2c(c1)OCO2)N1CCOCC1` [Compound 9], the IC50 at hMAO-B is 71.01 ± 0.005 µM; on hMAO-A [1] it was 22.19 ± 0.07 µM; in test [2] it was 13.98 ± 0.01 µM; in test [3] it was 12.35 ± 0.021 µM.

For the compound `CC1CCC(C(C)C)C(OC(=O)/C=C/C=C/c2ccc3c(c2)OCO3)C1` (stereo not drawn) [Compound 11], the Selectivity index on hMAO-B stood at 1.637. For the same compound, the IC50 on hMAO-B was 20.59 ± 0.006 µM; at hMAO-A [1] it was 33.72 ± 0.071 µM; in test [2], 17.57 ± 0.091 µM; in test [3], 14.15 ± 0.011 µM.

As for `O=C(/C=C/C=C/c1ccc2c(c1)OCO2)Oc1ccc2ccc(=O)oc2c1` [Compound 13], the Selectivity index at hMAO-B was 0.371. For the same compound, the half-maximal inhibitory concentration (IC50) on hMAO-B was 65.99 ± 0.002 µM; on hMAO-A [1] it was 24.53 ± 0.002 µM; in test [2], 11.35 ± 0.004 µM; in test [3], 10.7 ± 0.035 µM.

Take `Cc1ccc(C(C)C)cc1OC(=O)/C=C/C=C/c1ccc2c(c1)OCO2` [Compound 17a]: the Selectivity index on hMAO-B turned out to be 1.512. Further, the IC50 worked out at 21.37 ± 0.007 µM on hMAO-B, 32.33 ± 0.043 µM at hMAO-A [1], 23.76 ± 0.021 µM in test [2] and 17.15 ± 0.026 µM in test [3].

As to `COc1cc(C=O)ccc1OC(=O)/C=C/C=C/c1ccc2c(c1)OCO2` [Compound 17b], the Selectivity index on hMAO-B is recorded as 1.675. Further, the IC50 at hMAO-B is 17.9 ± 0.038 µM; on hMAO-A [1] it was 30 ± 0.005 µM; in test [2], 10.09 ± 0.013 µM; in test [3], 8.281 ± 0.001 µM.

The compound `C=CCc1ccc(OC(=O)/C=C/C=C/c2ccc3c(c2)OCO3)c(OC)c1` [Compound 17c] returned a Selectivity index at hMAO-B of 0.609. Besides, the IC50 at hMAO-B worked out at 26.44 ± 0.063 µM; on hMAO-A [1], 16.11 ± 0.091 µM; in test [2] it was 15.71 ± 0.014 µM; in test [3], 16.52 ± 0.012 µM.

`O=C(/C=C/C=C/c1ccc2c(c1)OCO2)N1CCCCC1` [Piperine, reference compound] yielded a Selectivity index at hMAO-B of 1.081. Moreover, the 50% inhibitory concentration (IC50) was found to be 17.57 ± 0.037 µM on hMAO-B, 19.01 ± 0.031 µM at hMAO-A [1], 11.33 ± 0.016 µM in test [2] and 9.814 ± 0.053 µM in test [3].

Values taken from PMC7027018 (BMC Chemistry, 2020).
